We go through eight compounds from PubChem BioAssay (NCI).

Structures are written as SMILES.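 Method: 48-hour compound exposure of cells in 96-well plates, five concentrations, linear interpolation of endpoints. Here, GI50 denotes the concentration required for 50% inhibition of growth. The concentration for full growth arrest is given as TGI.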

Some test systems named below: A498 renal; ACHN renal; CAKI-1 renal; HCT-116 colon; MDA-MB-435; MOLT-4 leukemia; RPMI-8226 leukemia; RXF 393 renal; SF-295 CNS; UO-31 renal.
Common to all, as to test: inhibition of tumour cell growth, NCI panel, 48 h

As for `CCCCCCCCCCCCCCCCCC(=O)[O][Sn]([CH2]CCC)([CH2]CCC)[CH2]CCC`, the GI50 is 0.0904 µM with A498 renal; 0.163 µM in the test on ACHN renal; 0.0524 µM in the test with CAKI-1 renal; 0.117 µM with HCT-116 colon; 0.149 µM with MDA-MB-435; 0.237 µM in the test with MOLT-4 leukemia. Further, the GI50 was 0.139 µM with RPMI-8226 leukemia, 0.1 µM in the test with RXF 393 renal, 0.162 µM in the test on SF-295 CNS and 0.161 µM in the test on UO-31 renal. The TGI came to 0.232 µM in the test on A498 renal; 0.334 µM in the test with ACHN renal; 0.214 µM in the test with CAKI-1 renal; 0.25 µM in the test with HCT-116 colon; 0.441 µM in the test on MDA-MB-435; 0.602 µM with RPMI-8226 leukemia. The TGI was 0.253 µM in the test with RXF 393 renal, 0.435 µM in the test with SF-295 CNS and 0.34 µM in the test with UO-31 renal.
For `CN(C)c1cc2c(cc1Sc1nc3c(N)nccc3n1CCNCC(C)(C)C)OCO2`, the GI50 is 1.46 µM in the test with A498 renal; 0.573 µM with ACHN renal; 0.591 µM in the test on CAKI-1 renal; 0.381 µM in the test on HCT-116 colon; 0.426 µM in the test on MDA-MB-435; 0.287 µM with MOLT-4 leukemia. For the same compound, the GI50 is 0.658 µM in the test on RPMI-8226 leukemia, 0.665 µM in the test on RXF 393 renal, 0.444 µM with SF-295 CNS and 0.64 µM in the test on UO-31 renal. For the same compound, the TGI with A498 renal is 10.1 µM; in the test on ACHN renal, more than 59.6 µM; with CAKI-1 renal it was 39.7 µM; in the test with HCT-116 colon it was 13.9 µM; in the test with MDA-MB-435 it was 15.4 µM; with MOLT-4 leukemia, 3.54 µM. Moreover, the TGI came to 19.4 µM in the test with RPMI-8226 leukemia, 15.3 µM with RXF 393 renal, 13.6 µM in the test with SF-295 CNS and 19 µM in the test on UO-31 renal.
With `COc1ccc(C2=C(Br)C(=O)OC2)cc1Cl`, the GI50 is 27.9 µM in the test on A498 renal; 19.3 µM in the test with ACHN renal; 8.52 µM with CAKI-1 renal; 20.4 µM with HCT-116 colon; 27.4 µM with MDA-MB-435; 29.5 µM with MOLT-4 leukemia. Moreover, the GI50 was 17.3 µM in the test on RPMI-8226 leukemia, 26.8 µM in the test with RXF 393 renal, 34 µM in the test on SF-295 CNS and 39.6 µM in the test on UO-31 renal. Besides, the TGI is more than 80.7 µM in the test on A498 renal; 39.9 µM in the test on ACHN renal; 51.1 µM in the test with CAKI-1 renal; 49.5 µM with HCT-116 colon; more than 100 µM in the test on MDA-MB-435; more than 100 µM in the test with MOLT-4 leukemia. Further, the TGI in the test with RPMI-8226 leukemia is 48.5 µM; in the test on RXF 393 renal it was more than 72.4 µM; with SF-295 CNS it was 98.4 µM; with UO-31 renal, more than 100 µM.
In the case of `Oc1c(Cl)cc(C(c2cc(Cl)c(O)c(Cl)c2)C(c2cc(Cl)c(O)c(Cl)c2)c2cc(Cl)c(O)c(Cl)c2)cc1Cl`, the GI50 in the test with A498 renal is 10.1 µM; with ACHN renal it was 5.21 µM; in the test with CAKI-1 renal, 3.45 µM; in the test with HCT-116 colon it was 2.36 µM; in the test with MDA-MB-435 it was 5.64 µM; in the test with RPMI-8226 leukemia, 3 µM. Further, the GI50 with RXF 393 renal was 1.34 µM; with SF-295 CNS, 3.51 µM; in the test with UO-31 renal it was 0.573 µM. Also, the TGI in the test with A498 renal came out at 26.3 µM; in the test on ACHN renal, 20.3 µM; with CAKI-1 renal, 13.6 µM; in the test on HCT-116 colon, 10.8 µM; in the test with MDA-MB-435, 19.2 µM; in the test on RPMI-8226 leukemia, 12.4 µM. Besides, the figures for the TGI in the test on RXF 393 renal, with SF-295 CNS and in the test with UO-31 renal were 4.11 µM, 16.3 µM and 8.04 µM, respectively.
On to `O=C1C(=O)c2ccccc2C=C1[N+](=O)[O-]`, for which the TGI in the test with A498 renal is more than 100 µM; with ACHN renal, more than 100 µM; in the test on CAKI-1 renal it was more than 100 µM; in the test on HCT-116 colon it was 69.9 µM; with MDA-MB-435, 31.8 µM; in the test on MOLT-4 leukemia, 65.4 µM. For the same compound, the TGI in the test with RPMI-8226 leukemia was more than 100 µM; in the test with RXF 393 renal it was 78.9 µM; in the test with SF-295 CNS, more than 100 µM; with UO-31 renal it was more than 100 µM.
On to `Oc1ccc(Cl)cc1Cc1cc(Cl)cc(Cc2cc(Cl)ccc2O)c1O`, for which the TGI with A498 renal turned out to be 4.28 µM; in the test with ACHN renal it was 7.64 µM; in the test on CAKI-1 renal it was 13 µM; with HCT-116 colon it was 9.33 µM; in the test on MDA-MB-435 it was 9.3 µM; in the test on MOLT-4 leukemia, 8.67 µM. Besides, the TGI in the test with RPMI-8226 leukemia was 5.49 µM; with RXF 393 renal, 8.86 µM; in the test on SF-295 CNS, 7.36 µM; with UO-31 renal it was 10.3 µM.
For the compound `NC(=O)c1ncn(C2OC(CO)C(O)C2O)n1` (stereo not given), the GI50 in the test with A498 renal is more than 100 µM; with ACHN renal, 59.8 µM; in the test on CAKI-1 renal, 57.2 µM; with HCT-116 colon, 45.1 µM; in the test on MDA-MB-435, more than 100 µM; in the test with MOLT-4 leukemia it was 52.9 µM. In addition, the values for the GI50 in the test with RPMI-8226 leukemia, in the test with RXF 393 renal and with UO-31 renal were 80.5 µM, more than 100 µM and more than 100 µM, respectively. Also, the TGI with A498 renal, in the test with ACHN renal, in the test on CAKI-1 renal, in the test with HCT-116 colon, with MDA-MB-435 and in the test on MOLT-4 leukemia was more than 100 µM each time. In addition, the TGI in the test with RPMI-8226 leukemia, in the test on RXF 393 renal and in the test with UO-31 renal was more than 100 µM each time.
Turning to `O=C(O)c1ccc([N+](=O)[O-])c(P(=O)(O)O)c1`, the TGI with A498 renal, in the test on ACHN renal, in the test with CAKI-1 renal, in the test with HCT-116 colon, with MDA-MB-435 and in the test on MOLT-4 leukemia was more than 100 µM each time. For the same compound, the TGI in the test with RPMI-8226 leukemia, in the test on RXF 393 renal, in the test with SF-295 CNS and in the test on UO-31 renal was more than 100 µM each time.
